This note sets out measurements from patent US20230136297A1, “Methods Of Treating Fabry Disease In Patients Having A Mutation In The GLA Gene” (Amicus Therapeutics, Inc., priority 2020, published 2023).

SMILES strings stand for the structures. Numbering of substitutions follows the chain as printed.

What all share (experiment): α-Gal A activity in lysates of transfected HEK-293 cells ± migalastat (HEK assay)
Holding throughout (type): cell-based

For experiment [1], the target named is T1, α-Gal A mutant form S276T (Homo sapiens, UniProt P06280, S276T).
T1 construct: expressed in transfected cells; host or cells: HEK-293
T1 sequence (P06280 32-429 S276T): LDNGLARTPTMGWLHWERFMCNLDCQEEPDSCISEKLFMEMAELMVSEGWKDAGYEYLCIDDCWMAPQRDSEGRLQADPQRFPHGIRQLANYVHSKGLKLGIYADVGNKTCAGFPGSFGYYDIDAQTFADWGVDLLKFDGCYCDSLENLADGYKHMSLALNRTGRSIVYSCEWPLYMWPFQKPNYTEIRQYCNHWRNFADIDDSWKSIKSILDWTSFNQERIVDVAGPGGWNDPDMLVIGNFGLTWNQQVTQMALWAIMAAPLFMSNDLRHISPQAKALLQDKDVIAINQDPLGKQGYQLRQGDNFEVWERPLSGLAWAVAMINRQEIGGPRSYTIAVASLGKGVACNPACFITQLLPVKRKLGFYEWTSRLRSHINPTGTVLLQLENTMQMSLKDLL
The source says:
(§1) Such mutations or variants are also referred to herein as “HEK assay amenable” mutations or variants.
(§2) The α-Gal A activity is expressed as the nmoles of free 4-MU released per milligram of protein per hour (nmol/mg/hr).

The target of experiment [2] is T2, α-Gal A mutant form M290V (Homo sapiens, UniProt P06280, M290V).
T2 construct: expressed in transfected cells; host or cells: HEK-293
T2 sequence (P06280 32-429 M290V): T1 sequence (P06280 32-429 S276T) with T245S, M259V
Source text: as §1, §2

The target of experiment [3] is T3, α-Gal A mutant form W209R (Homo sapiens, UniProt P06280, W209R).
T3 construct: expressed in transfected cells; host or cells: HEK-293
T3 sequence (P06280 32-429 W209R): T1 sequence (P06280 32-429 S276T) with W178R, T245S
Source text: as §1, §2

Experiment [4] concerns the target T4, α-Gal A mutant form A143V (Homo sapiens, UniProt P06280, A143V).
T4 construct: expressed in transfected cells; host or cells: HEK-293
T4 sequence (P06280 32-429 A143V): T1 sequence (P06280 32-429 S276T) with A112V, T245S
Source text: as §1, §2

The target in experiment [5] is T5, α-Gal A mutant form F159C (Homo sapiens, UniProt P06280, F159C).
T5 construct: expressed in transfected cells; host or cells: HEK-293
T5 sequence (P06280 32-429 F159C): T1 sequence (P06280 32-429 S276T) with F128C, T245S
Source text: as §1, §2

[6] abbreviates: 10 μM migalastat minus baseline.
Where [7] appears, read: HEK-293 lysates, 10 μM migalastat 5 days, mean ± SEM.

Consider `OC[C@H]1NC[C@H](O)[C@@H](O)[C@H]1O` [migalastat, (2R,3S,4R,5S)-2-(hydroxymethyl) piperdine-3,4,5-triol], for which the “Absolute increase (% WT)” value in experiment [1] (setting [6]) came to 8.3 % WT; in experiment [2] (setting [6]), 61.5 % WT; in experiment [3] (setting [6]), 17.5 % WT; in experiment [4] (setting [6]), 31.7 % WT; in experiment [5] (setting [6]) it was 15.8 % WT. For the same compound, the Relative increase in experiment [1] (10 μM migalastat ÷ baseline) is on record as 7.5; in experiment [2] (10 μM migalastat ÷ baseline), 1.94; in experiment [3] (10 μM migalastat ÷ baseline), 1.25; in experiment [4] (10 μM migalastat ÷ baseline), 3.24; in experiment [5] (10 μM migalastat ÷ baseline), 2.07. Also, the “10 μM migalastat α-Gal A activity” value in experiment [1] (setting [7]) turned out to be 4104 ± 439 nmol/mg/h; in experiment [2] (setting [7]) it was 45804 ± 2927 nmol/mg/h; in experiment [3] (setting [7]), 28729 ± 1293 nmol/mg/h; in experiment [4] (setting [7]), 13309 ± 921 nmol/mg/h; in experiment [5] (setting [7]), 9238 ± 513 nmol/mg/h. Also, the “10 μM migalastat α-Gal A activity (% WT)” value in experiment [1] (setting [7]) was 9.6 ± 0.9 % WT; in experiment [2] (setting [7]) it was 128.1 ± 8.2 % WT; in experiment [3] (setting [7]) it was 81.1 ± 4.6 % WT; in experiment [4] (setting [7]), 45.5 ± 3.2 % WT; in experiment [5] (setting [7]), 29.6 ± 2.3 % WT.
